Experimental data published in patent publication US6355799B1, “Substituted benzene compounds, process for their preparation, and herbicidal and defoliant compositions containing them” (ISK Americas Incorporated, priority 1997, dated 2002).

Legend:
Format in all cases: in vivo
[1] = tested on: redroot pigweed (Amaranthus retroflexus, AMARE); experiment: Pre-emerge test, greenhouse herbicide activity screening; details: rating scale 0-100, 14 days after application
Method in brief: (§1)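 Rating: 0–100 visual injury, 14 DAA. Application: acetone, 187 l/ha, 15–1000 g ai/ha, flat-fan track sprayer with nozzle 40–45 cm above soil or canopy. Post-emerge runs used 0.25% v/v surfactant on 2–3 leaf plants.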

[2] = tested on: barnyardgrass (Echinochloa crus-galli, ECHCG); experiment: as above; details: rating scale 0-100, 14 days after application
Method in brief: as §1

[3] = tested on: common ragweed (Ambrosia artemisizfolia L., AMBEL); experiment: as above; details: rating scale 0-100, 14 days after application
Method in brief: as §1

[4] = tested on: green foxtail (Setaria viridis, SETVI); experiment: as above; details: rating scale 0-100, 14 days after application
Method in brief: as §1

[5] = tested on: ivyleaf morningglory (Ipomoea hederacea, IPOHE); experiment: as above; details: rating scale 0-100, 14 days after application
Method in brief: as §1

[6] = tested on: johnsongrass (Sorghum halepense, SORHA); experiment: as above; details: rating scale 0-100, 14 days after application
Method in brief: as §1

[7] = tested on: lambsquarters (Chenopodium album, CHEAL); experiment: as above; details: rating scale 0-100, 14 days after application
Method in brief: as §1

[8] = tested on: large crabgrass (Digitaria sanguinalis, DIGSA); experiment: as above; details: rating scale 0-100, 14 days after application
Method in brief: as §1

[9] = tested on: sicklepod (Cassia obtusifolia, CASOB); experiment: as above; details: rating scale 0-100, 14 days after application
Method in brief: as §1

[10] = tested on: velvetleaf (Abutilon theophrasti, ABUTH); experiment: as above; details: rating scale 0-100, 14 days after application
Method in brief: as §1

[11] = tested on: field corn (Zea mays L., var. Dekalb 535, CORN); experiment: Pre-emerge test, crop safety; details: rating scale 0-100, 14 days after application
Method in brief: (§2)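 Sandy loam pots; pre-emerge: sown 1 d pre-spray, surface-watered after, then bottom-watered. Post-emerge: sown 8–21 d before, 2–3 leaf stage, + 0.25% v/v NIS, bottom-watered. Acetone, 187 l/ha track spray, 15–1000 g ai/ha. 0–100 injury score, day 14.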

[12] = tested on: upland rice (Oryza sp., var. Tebonnet, RICE); experiment: Pre-emerge test, crop safety; details: rating scale 0-100, 14 days after application
Method in brief: as §2

[13] = tested on: barnyardgrass (Echinochloa crus-galli, ECHCG); experiment: Post-emerge test, greenhouse herbicide activity screening; details: rating scale 0-100 (0 no damage, 100 complete death), 14 days after application
Method in brief: (§3)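 Plants grown in 10 cm pots of sandy loam mix received acetone-dissolved compounds through a moving flat-fan nozzle. Doses ranged from 15 to 1000 g ai/ha. Pre-emerge pots were seeded one day earlier, post-emerge pots 8–21 days earlier. Fourteen days on, each pot was graded 0–100 for damage.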

[14] = tested on: common ragweed (Ambrosia artemisizfolia L., AMBEL); experiment: as above; details: rating scale 0-100 (0 no damage, 100 complete death), 14 days after application
Method in brief: as §3

[15] = tested on: green foxtail (Setaria viridis, SETVI); experiment: as above; details: rating scale 0-100 (0 no damage, 100 complete death), 14 days after application
Method in brief: as §3

[16] = tested on: ivyleaf morningglory (Ipomoea hederacea, IPOHE); experiment: as above; details: rating scale 0-100 (0 no damage, 100 complete death), 14 days after application
Method in brief: as §3

[17] = tested on: lambsquarters (Chenopodium album, CHEAL); experiment: as above; details: rating scale 0-100 (0 no damage, 100 complete death), 14 days after application
Method in brief: as §3

[18] = tested on: large crabgrass (Digitaria sanguinalis, DIGSA); experiment: as above; details: rating scale 0-100 (0 no damage, 100 complete death), 14 days after application
Method in brief: as §3

[19] = tested on: redroot pigweed (Amaranthus retroflexus, AMARE); experiment: as above; details: rating scale 0-100 (0 no damage, 100 complete death), 14 days after application
Method in brief: as §3

[20] = tested on: sicklepod (Cassia obtusifolia, CASOB); experiment: as above; details: rating scale 0-100 (0 no damage, 100 complete death), 14 days after application
Method in brief: as §3

[21] = tested on: velvetleaf (Abutilon theophrasti, ABUTH); experiment: as above; details: rating scale 0-100 (0 no damage, 100 complete death), 14 days after application
Method in brief: as §3

[22] = tested on: field corn (Zea mays L., var. Dekalb 535, CORN); experiment: Post-emerge test, crop safety; details: rating scale 0-100 (0 no damage, 100 complete death), 14 days after application
Method in brief: as §3

[23] = tested on: upland rice (Oryza sp., var. Tebonnet, RICE); experiment: Post-emerge test, crop safety; details: rating scale 0-100 (0 no damage, 100 complete death), 14 days after application
Method in brief: as §3

Structure (SMILES): CCCCOC(=O)C(Cl)Cc1c(OC)c(Cl)cc(F)c1-n1c(=O)cc(C(F)(F)F)n(C)c1=O (single isomer, unassigned) [14-9]
- Pre-emerge herbicidal activity, phytotoxicity rating AMARE ([1]; 63 g ai/ha): 80
- Pre-emerge herbicidal activity, phytotoxicity rating AMARE ([1]; 250 g ai/ha): 100
- Pre-emerge herbicidal activity, phytotoxicity rating ECHCG ([2]; 63 g ai/ha): 0
- Pre-emerge herbicidal activity, phytotoxicity rating ECHCG ([2]; 250 g ai/ha): 70
- Pre-emerge herbicidal activity, phytotoxicity rating AMBEL ([3]; 63 g ai/ha): 0
- Pre-emerge herbicidal activity, phytotoxicity rating AMBEL ([3]; 250 g ai/ha): 0
- Pre-emerge herbicidal activity, phytotoxicity rating SETVI ([4]; 63 g ai/ha): 0
- Pre-emerge herbicidal activity, phytotoxicity rating SETVI ([4]; 250 g ai/ha): 20
- Pre-emerge herbicidal activity, phytotoxicity rating IPOHE ([5]; 63 g ai/ha): 0
- Pre-emerge herbicidal activity, phytotoxicity rating IPOHE ([5]; 250 g ai/ha): 0
- Pre-emerge herbicidal activity, phytotoxicity rating SORHA ([6]; 63 g ai/ha): 0
- Pre-emerge herbicidal activity, phytotoxicity rating SORHA ([6]; 250 g ai/ha): 30
- Pre-emerge herbicidal activity, phytotoxicity rating CHEAL ([7]; 63 g ai/ha): 60
- Pre-emerge herbicidal activity, phytotoxicity rating CHEAL ([7]; 250 g ai/ha): 90
- Pre-emerge herbicidal activity, phytotoxicity rating DIGSA ([8]; 63 g ai/ha): 90
- Pre-emerge herbicidal activity, phytotoxicity rating DIGSA ([8]; 250 g ai/ha): 100
- Pre-emerge herbicidal activity, phytotoxicity rating CASOB ([9]; 63 g ai/ha): 0
- Pre-emerge herbicidal activity, phytotoxicity rating CASOB ([9]; 250 g ai/ha): 0
- Pre-emerge herbicidal activity, phytotoxicity rating ABUTH ([10]; 63 g ai/ha): 0
- Pre-emerge herbicidal activity, phytotoxicity rating ABUTH ([10]; 250 g ai/ha): 90
- Pre-emerge phytotoxicity rating, crop damage CORN ([11]; 63 g ai/ha): 0
- Pre-emerge phytotoxicity rating, crop damage CORN ([11]; 250 g ai/ha): 75
- Pre-emerge phytotoxicity rating, crop damage RICE ([12]; 63 g ai/ha): 0
- Pre-emerge phytotoxicity rating, crop damage RICE ([12]; 250 g ai/ha): 5
- Post-emerge Herbicidal Activity, phytotoxicity rating ECHCG ([13]; Rate 63 g ai/ha): 98
- Post-emerge Herbicidal Activity, phytotoxicity rating ECHCG ([13]; Rate 250 g ai/ha): 100
- Post-emerge Herbicidal Activity, phytotoxicity rating AMBEL ([14]; Rate 63 g ai/ha): 10
- Post-emerge Herbicidal Activity, phytotoxicity rating AMBEL ([14]; Rate 250 g ai/ha): 70
- Post-emerge Herbicidal Activity, phytotoxicity rating SETVI ([15]; Rate 63 g ai/ha): 30
- Post-emerge Herbicidal Activity, phytotoxicity rating SETVI ([15]; Rate 250 g ai/ha): 60
- Post-emerge Herbicidal Activity, phytotoxicity rating IPOHE ([16]; Rate 63 g ai/ha): 0
- Post-emerge Herbicidal Activity, phytotoxicity rating IPOHE ([16]; Rate 250 g ai/ha): 80
- Post-emerge Herbicidal Activity, phytotoxicity rating CHEAL ([17]; Rate 63 g ai/ha): 60
- Post-emerge Herbicidal Activity, phytotoxicity rating CHEAL ([17]; Rate 250 g ai/ha): 99
- Post-emerge Herbicidal Activity, phytotoxicity rating DIGSA ([18]; Rate 63 g ai/ha): 75
- Post-emerge Herbicidal Activity, phytotoxicity rating DIGSA ([18]; Rate 250 g ai/ha): 75
- Post-emerge Herbicidal Activity, phytotoxicity rating AMARE ([19]; Rate 63 g ai/ha): 90
- Post-emerge Herbicidal Activity, phytotoxicity rating AMARE ([19]; Rate 250 g ai/ha): 99
- Post-emerge Herbicidal Activity, phytotoxicity rating CASOB ([20]; Rate 63 g ai/ha): 0
- Post-emerge Herbicidal Activity, phytotoxicity rating CASOB ([20]; Rate 250 g ai/ha): 0
- Post-emerge Herbicidal Activity, phytotoxicity rating ABUTH ([21]; Rate 63 g ai/ha): 70
- Post-emerge Herbicidal Activity, phytotoxicity rating ABUTH ([21]; Rate 250 g ai/ha): 100
- Post-emerge phytotoxicity rating CORN (crop damage) ([22]; Rate 63 g ai/ha): 70
- Post-emerge phytotoxicity rating CORN (crop damage) ([22]; Rate 250 g ai/ha): 99
- Post-emerge phytotoxicity rating RICE (crop damage) ([23]; Rate 63 g ai/ha): 5
- Post-emerge phytotoxicity rating RICE (crop damage) ([23]; Rate 250 g ai/ha): 20
